Source: PubChem BioAssay (NCI)
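Exposure lasted 48 hours, with cells grown in 96-well plates and compounds tested at five concentrations. Here, GI50 denotes the concentration required for 50% inhibition of growth. At the TGI there is no net growth.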

What was measured:
Test in all cases: NCI anticancer screen, dose series, 48 h
ACHN renal = tested on: ACHN renal
MOLT-4 leukemia = tested on: MOLT-4 leukemia
U251 CNS = tested on: U251 CNS
UACC-257 melanoma = tested on: UACC-257 melanoma
COLO 205 colon = tested on: COLO 205 colon
CCRF-CEM leukemia = tested on: CCRF-CEM leukemia
OVCAR-4 ovarian = tested on: OVCAR-4 ovarian
HS 578T breast = tested on: HS 578T breast
IGROV1 ovarian = tested on: IGROV1 ovarian

SMILES | TGI (ACHN renal) [µM] | TGI (MOLT-4 leukemia) [µM] | TGI (U251 CNS) [µM] | TGI (UACC-257 melanoma) [µM] | TGI (COLO 205 colon) [µM] | TGI (CCRF-CEM leukemia) [µM] | TGI (OVCAR-4 ovarian) [µM] | TGI (HS 578T breast) [µM] | TGI (IGROV1 ovarian) [µM] | GI50 (ACHN renal) [µM] | GI50 (CCRF-CEM leukemia) [µM] | GI50 (HS 578T breast) [µM] | GI50 (MOLT-4 leukemia) [µM] | GI50 (IGROV1 ovarian) [µM] | GI50 (OVCAR-4 ovarian) [µM] | GI50 (U251 CNS) [µM] | GI50 (UACC-257 melanoma) [µM] | GI50 (COLO 205 colon) [µM]
COc1ccc(N2C(=O)C(=O)C3(CCCCC3)C2=O)c(OC)c1OC | > 100 | > 100 | > 100 | > 100 | > 100 | > 100 | > 100 | > 100 | – | – | – | – | – | – | – | – | – | –
COc1ccc2nc3c([N+](=O)[O-])ccc(NCCCN(C)C)c3c(N)c2c1 | 2.59 | 1.69 | 3.02 | – | 2.29 | 1.26 | 3.06 | 4.79 | 2.85 | – | – | – | – | – | – | – | – | –
O=c1cc(NNc2cccc(F)c2)[nH]c(=S)[nH]1 | > 100 | – | > 100 | > 100 | > 100 | – | > 100 | > 100 | > 100 | – | – | – | – | – | – | – | – | –
CCOC(=O)c1cc([N+](=O)[O-])cc([N+](=O)[O-])c1Sc1ncnc2nc[nH]c12 | 4.17 | > 26.8 | 24.8 | – | 5.03 | 6.84 | 2.41 | 71.2 | 6.13 | – | – | – | – | – | – | – | – | –
Cc1cc2nc(CC(C(F)(F)F)C(F)(F)F)oc2cc1C | 20.7 | – | 9.41 | 9.55 | 4.98 | > 100 | 6.92 | 16.6 | 10.1 | – | – | – | – | – | – | – | – | –
CNC(=O)c1cc(Oc2cccc3nc(NC(=O)Nc4ccc(F)cc4F)ccc23)ccn1 | > 50 | – | – | – | – | > 50 | – | 3.99 | – | 2.13 | > 50 | 1.4 | – | – | – | – | – | –
COc1cc(O)c2c(=O)c(OC)c(-c3ccc(OC)c(OC)c3)oc2c1.[Sn] | > 100 | > 100 | – | – | > 100 | – | > 100 | > 100 | > 100 | > 100 | – | – | 80.1 | > 100 | 8.24 | – | – | –
COC1=CC(c2ccc[nH]2)=N/C1=C\c1[nH]c(C)c(C)c1CCC(=O)OCc1ccccc1 | – | 1.44 | 1.52 | 2.97 | 1.15 | 2.59 | 4.43 | 1.68 | – | – | 0.142 | 0.289 | 0.24 | – | 0.246 | 0.322 | 1.27 | 0.257
CC(C)(/C=N/O)/[N+]([O-])=C/c1ccccc1 | > 100 | > 100 | > 100 | > 100 | > 100 | – | > 100 | > 100 | > 100 | – | – | – | – | – | – | – | – | –
c1ccc(Sc2nc(Sc3ccccc3)nc(Sc3ccccc3)n2)cc1 | > 100 | > 100 | > 100 | > 100 | 38.7 | > 100 | > 100 | 75.4 | – | – | – | – | – | – | – | – | – | –
CCC1OC2C(CC=C(C)C)=C3OC(C)(O)C(C)(CC)C(=O)C3=C3OC(=O)C=C1C32 (stereo not given) | 94.6 | > 100 | > 100 | 96.2 | 37 | > 100 | > 100 | – | – | – | – | – | – | – | – | – | – | –
CN(C)C1(c2cc3ccccc3s2)CCCCC1 | > 100 | > 100 | > 100 | 80.4 | > 100 | 0.0223 | > 100 | – | > 100 | – | – | – | – | – | – | – | – | –
